Data published in patent US20100137313A1 (ASTRAZENECA AB, priority 2008, published 2010).

molecular target: S. pneumoniae Topoisomerase IV ATPase (ParE) (Streptococcus pneumoniae serotype 4, UniProt Q59961); assay: S. pneumoniae Topoisomerase IV ATPase inhibition; type: biochemical; conditions: values marked * are an average of two or more data points, read-out: % Inh (13 μM) of S. pneumoniae Topoisomerase IV ATPase
In short: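 ParE ATPase (1.25 nM) run with 160 μM ATP and 5 μg/ml sheared salmon sperm DNA in Tris pH 8.0, Mg2+, glycerol, DTT, Brij-35. Phosphate released read by malachite green/molybdate absorbance at 650 nm. IC50 from 10 compound concentrations; DMSO (2%) as 0% and EDTA (20 μM) as 100% inhibition.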

Sequence of S. pneumoniae Topoisomerase IV ATPase (ParE) (Q59961 whole entry): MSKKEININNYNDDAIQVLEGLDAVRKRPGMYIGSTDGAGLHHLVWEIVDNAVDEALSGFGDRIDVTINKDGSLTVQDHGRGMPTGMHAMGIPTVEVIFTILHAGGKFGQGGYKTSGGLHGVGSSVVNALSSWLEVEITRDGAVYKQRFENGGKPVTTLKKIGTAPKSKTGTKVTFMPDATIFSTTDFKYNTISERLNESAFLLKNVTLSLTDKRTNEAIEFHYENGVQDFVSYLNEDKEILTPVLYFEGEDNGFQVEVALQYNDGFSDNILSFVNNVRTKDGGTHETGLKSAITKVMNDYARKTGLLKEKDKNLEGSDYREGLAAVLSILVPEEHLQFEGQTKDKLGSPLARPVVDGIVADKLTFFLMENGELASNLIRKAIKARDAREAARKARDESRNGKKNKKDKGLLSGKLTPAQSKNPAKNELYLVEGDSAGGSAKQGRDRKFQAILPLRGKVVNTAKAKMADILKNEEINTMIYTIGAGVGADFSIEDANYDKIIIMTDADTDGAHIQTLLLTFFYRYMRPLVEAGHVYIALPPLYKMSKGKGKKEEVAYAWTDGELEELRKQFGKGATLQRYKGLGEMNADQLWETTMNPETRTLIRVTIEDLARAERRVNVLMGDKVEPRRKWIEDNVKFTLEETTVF

Row | SMILES | inhibition at 13 µM
1 | O=C(O)c1cn(CCN2CCOCC2)c2ccc(-c3cnc(Nc4ccc(F)c(Cl)c4)nc3-n3ccc(C(F)(F)F)n3)cc2c1=O [Example 1069, 6-(2-(3-Chloro-4-fluorophenylamino)-4-(3-(trifluoromethyl)-1H-pyrazol-1-yl)pyrimidin-5-yl)-1-(2-morpholinoethyl)-4-oxo-1,4-dihydroquinoline-3-carboxylic acid] | 100%
2 | CN(C)CCn1cc(C(=O)O)c(=O)c2cc(-c3cnc(Nc4ccc(F)c(Cl)c4)nc3-n3ccc(C(F)(F)F)n3)ccc21 [Example 1070, 6-(2-(3-Chloro-4-fluorophenylamino)-4-(3-(trifluoromethyl)-1H-pyrazol-1-yl)pyrimidin-5-yl)-1-(2-(dimethylamino)ethyl)-4-oxo-1,4-dihydroquinoline-3-carboxylic acid] | 93%
3 | CN1CCN(CCn2cc(C(=O)O)c(=O)c3cc(-c4cnc(Nc5ccc(F)c(Cl)c5)nc4-n4ccc(C(F)(F)F)n4)ccc32)CC1 [Example 1071, 6-(2-(3-Chloro-4-fluorophenylamino)-4-(3-(trifluoromethyl)-1H-pyrazol-1-yl)pyrimidin-5-yl)-1-(2-(4-methylpiperazin-1-yl)ethyl)-4-oxo-1,4-dihydroquinoline-3-carboxylic acid] | 100%
4 | O=C(O)C(=O)Nc1cccc(-c2cnc(Nc3ccc(F)c(Cl)c3)nc2-n2ccc(C(F)(F)F)n2)c1 [Example 1072, 2-(3-(2-(3-Chloro-4-fluorophenylamino)-4-(3-(trifluoromethyl)-1H-pyrazol-1-yl)pyrimidin-5-yl)phenylamino)-2-oxoacetic acid] | 95%
5 | Nc1ncc(-c2cnc(Nc3ccc(F)c(Cl)c3)nc2-n2ccc(C(F)(F)F)n2)cc1C(=O)O [Example 1073, 2-Amino-5-(2-(3-chloro-4-fluorophenylamino)-4-(3-(trifluoromethyl)-1H-pyrazol-1-yl)pyrimidin-5-yl)nicotinic acid] | 99%
6 | COc1ccc(-c2cnc(Nc3ccc(F)c(Cl)c3)nc2-n2ccc(C(F)(F)F)n2)cc1C(=O)O [Example 1074, 5-(2-(3-Chloro-4-fluorophenylamino)-4-(3-(trifluoromethyl)-1H-pyrazol-1-yl)pyrimidin-5-yl)-2-methoxybenzoic acid] | 100%
7 | O=C(O)c1cc(-c2cnc(Nc3ccc(F)c(Cl)c3)nc2-n2ccc(C(F)(F)F)n2)cn(CCN2CCOCC2)c1=O [Example 1075, 5-(2-(3-Chloro-4-fluorophenylamino)-4-(3-(trifluoromethyl)-1H-pyrazol-1-yl)pyrimidin-5-yl)-1-(2-morpholinoethyl)-2-oxo-1,2-dihydropyridine-3-carboxylic acid] | 97%
8 | Cc1cc(C(F)(F)F)nn1-c1nc(Nc2ccc(F)c(Cl)c2)ncc1-c1cc(C(=O)O)c(=O)n(CCN2CCOCC2)c1 [Example 1076, 5-(2-(3-Chloro-4-fluorophenylamino)-4-(5-methyl-3-(trifluoromethyl)-1H-pyrazol-1-yl)pyrimidin-5-yl)-1-(2-morpholinoethyl)-2-oxo-1,2-dihydrpyridine-3-carboxylic acid] | 99%
9 | O=C(O)c1cc(-c2cnc(Nc3ccc(F)c(Cl)c3)nc2-n2ccc(C(F)(F)F)n2)cnc1NCCN1CCOCC1 [Example 1077, 5-(2-(3-Chloro-4-fluorophenylamino)-4-(3-(trifluoromthyl)-1H-pyrazol-1-yl)pyrimidin-5-yl)-2-(2-morpholinoethylamino)nicotinic acid] | 99%
10 | Cc1cc(C(F)(F)F)nn1-c1nc(Nc2ccc(F)c(Cl)c2)ncc1-c1cnc(NCCN2CCOCC2)c(C(=O)O)c1 [Example 1078, 5-(2-(3-Chloro-4-fluorophenylamino)-4-(5-methyl-3-(trifluoromethyl)-1H-pyrazol-1-yl)pyrimidin-5-yl)-2-(2-morpholinoethylamino)nicotinic acid] | 100%
11 | COCCNc1ncc(-c2cnc(Nc3ccc(F)c(Cl)c3)nc2-n2ccc(C(F)(F)F)n2)cc1C(=O)O [Example 1079, 5-(2-(3-Chloro-4-fluorophenylamino)-4-(3-(trifluoromethyl)-1H-pyrazol-1-yl)pyrimidin-5-yl)-2-(2-methoxyethylamino)nicotinic acid] | 100%
12 | COCCNc1ncc(-c2cnc(Nc3ccc(F)c(Cl)c3)nc2-n2nc(C(F)(F)F)cc2C)cc1C(=O)O [Example 1080, 5-(2-(3-Chloro-4-fluorophenylamino)-4-(5-methyl-3-(trifluoromethyl)-1H-pyrazol-1-yl)pyrimidin-5-yl)-2-(2-methoxyethylamino)nicotinic acid] | 100%
13 | COCCn1cc(-c2cnc(Nc3ccc(F)c(Cl)c3)nc2-n2ccc(C(F)(F)F)n2)cc(C(=O)O)c1=O [Example 1081, 5-(2-(3-Chloro-4-fluorophenylamino)-4-(3-(trifluoromethyl)-1H-pyrazol-1-yl)pyrimidin-5-yl)-1-(2-methoxyethyl)-2-oxo-1,2-dihydropyridine-3-carboxylic acid] | 100%
14 | COCCn1cc(-c2cnc(Nc3ccc(F)c(Cl)c3)nc2-n2nc(C(F)(F)F)cc2C)cc(C(=O)O)c1=O [Example 1082, 5-(2-(3-Chloro-4-fluorophenylamino)-4-(5-methyl-3-(trifluoromethyl)-1H-pyrazol-1-yl)pyrimidin-5-yl)-1-(2-methoxyethyl)-2-oxo-1,2-dihydropyridine-3-carboxylic acid] | 100%
15 | O=C(O)c1cc(-c2cnc(Nc3ccc(F)c(Cl)c3)nc2-n2ccc(C(F)(F)F)n2)cn(CCO)c1=O [Example 1083, 5-(2-(3-Chloro-4-fluorophenylamino)-4-(3-(trifluoromethyl)-1H-pyrazol-1-yl)pyrimidin-5-yl)-1-(2-hydroxyethyl)-2-oxo-1,2-dihydropyridine-3-carboxylic acid] | 99%
16 | Cc1cc(C(F)(F)F)nn1-c1nc(Nc2ccc(F)c(Cl)c2)ncc1-c1cc(C(=O)O)c(=O)n(CCO)c1 [Example 1084, 5-(2-(3-Chloro-4-fluorophenylamino)-4-(5-methyl-3-(trifluoromethyl)-1H-pyrazol-1-yl)pyrimidin-5-yl)-1-(2-hydroxyethyl)-2-oxo-1,2-dihydropyridine-3-carboxylic acid] | 100%
17 | CCn1cc(-c2cnc(Nc3ccc(F)c(Cl)c3)nc2-n2ccc(C(F)(F)F)n2)cc(C(=O)O)c1=O [Example 1085, 5-(2-(3-Chloro-4-fluorophenylamino)-4-(3-(trifluoromethyl)-1H-pyrazol-1-yl)pyrimidin-5-yl)-1-ethyl-2-oxo-1,2-dihydropyridine-3-carboxylic acid] | 100%
18 | CCn1cc(-c2cnc(Nc3ccc(F)c(Cl)c3)nc2-n2nc(C(F)(F)F)cc2C)cc(C(=O)O)c1=O [Example 1086, 5-(2-(3-Chloro-4-fluorophenylamino)-4-(5-methyl-3-(trifluoromethyl)-1H-pyrazol-1-yl)pyrimidin-5-yl)-1-ethyl-2-oxo-1,2-dihydropyridine-3-carboxylic acid] | 92%
19 | Cn1cc(-c2cnc(Nc3ccc(F)c(Cl)c3)nc2-n2ccc(C(F)(F)F)n2)cc(C(=O)O)c1=O [Example 1087, 5-(2-(3-Chloro-4-fluorophenylamino)-4-(3-(trifluoromethyl)-1H-pyrazol-1-yl)pyrimidin-5-yl)-1-methyl-2-oxo-1,2-dihydropyridine-3-carboxylic acid] | 100%
20 | Cc1cc(C(F)(F)F)nn1-c1nc(Nc2ccc(F)c(Cl)c2)ncc1-c1cc(C(=O)O)c(=O)n(C)c1 [Example 1088, 5-(2-(3-chloro-4-fluorophenylamino)-4-(5-methyl-3-(trifluoromethyl)-1H-pyrazol-1-yl)pyrimidin-5-yl)-1-methyl-2-oxo-1,2-dihydrpyridine-3-carboxylic acid] | 100%
21 | CC(C)N1CCN(CCn2cc(-c3cnc(Nc4ccc(F)c(Cl)c4)nc3-n3ccc(C(F)(F)F)n3)cc(C(=O)O)c2=O)CC1 [Example 1089, 5-(2-(3-chloro-4-fluorophenylamino)-4-(3-(trifluoromethyl)-1H-pyrazol-1-yl)pyrimidin-5-yl)-1-(2-(4-isopropylpiperazin-1-yl)ethyl)-2-oxo-1,2-dihydropyridine-3-carboxylic acid] | 100%
22 | Cc1cc(C(F)(F)F)nn1-c1nc(Nc2ccc(F)c(Cl)c2)ncc1-c1cc(C(=O)O)c(=O)n(CCN2CCN(C(C)C)CC2)c1 [Example 1090, 5-(2-(3-chloro-4-fluorophenylamino)-4-(5-methyl-3-(trifluoromethyl)-1H-pyrazol-1-yl)pyrimidin-5-yl)-1-(2-(4-isopropylpiperazin-1-yl)ethyl)-2-oxo-1,2-dihydropyridine-3-carboxylic acid] | 100%
23 | CS(=O)(=O)CCn1cc(-c2cnc(Nc3ccc(F)c(Cl)c3)nc2-n2ccc(C(F)(F)F)n2)cc(C(=O)O)c1=O [Example 1091, 5-(2-(3-Chloro-4-fluorophenylamino)-4-(3-(trifluoromethyl)-1H-pyrazol-1-yl)pyrimidin-5-yl)-1-(2-(methylsulfonyl)ethyl)-2-oxo-1,2-dihydropyridine-3-carboxylic acid] | 100%
24 | O=C(O)c1cc(-c2cnc(Nc3ccc(F)c(Cl)c3)nc2-n2ccc(C(F)(F)F)n2)c[nH]c1=O [Example 1092, 5-(2-(3-Chloro-4-fluorophenylamino)-4-(3-(trifluoromethyl)-1H-pyrazol-1-yl)pyrimidin-5-yl)-2-oxo-1,2-dihydropyridine-3-carboxylic acid] | 100%
25 | Cc1cc(C(F)(F)F)nn1-c1nc(Nc2ccc(F)c(Cl)c2)ncc1-c1cc(C(=O)O)c(=O)n(CCS(C)(=O)=O)c1 [Example 1093, 5-(2-(3-Chloro-4-fluorophenylamino)-4-(5-methyl-3-(trifluoromethyl)-1H-pyrazol-1-yl)pyrimidin-5-yl)-1-(2-(methylsulfonyl)ethyl)-2-oxo-1,2-dihydropyridine-3-carboxylic acid] | 100%
